{"source": "patent US9682071B2", "about": "“Methods of improving microvascular integrity” (INTERMUNE, INC., priority 2013, dated 2017)", "system": "trachea allograft mouse model of acute transplant rejection", "assay": "murine orthotopic tracheal transplant model (allograft rejection)", "assay_type": "in vivo", "details": "for tissue oxygenation (pO2): pirfenidone-treated allografted mice vs untreated allografted controls, over time post-transplantation (FIG. 3), pO2 in mm Hg", "method": "Pirfenidone was tested in a murine orthotopic tracheal transplant model, as generally described in Babu et al., J Clin Invest. 2007; 117(12):3774-3785. In this model in which allograft rejection occurs, typically perfusion ceases after a fixed period of time which is highly reliable (10 days). […] Perfusion is later restored on rejecting allografts as recipient-derived vessels neovascularize the transplant on d28. In contrast, mice receiving syngeneic (identical) grafts maintain tissue oxygenation at approximately the same levels throughout. Magnified images of the microvasculature, obtained after i.v. injection of FITC-conjugated (green) tomato lectin to bind and identify perfused vasculature, are shown in FIG. 1B.", "data": [{"compound": "Cc1ccc(=O)n(-c2ccccc2)c1", "note": "[Pirfenidone, 5-methyl-1-phenyl-2-(1H)-pyridone]", "values": [{"measurement": "fibrosis", "setting": "allograft recipients fed pirfenidone in their chow", "result": "significantly attenuated"}, {"measurement": "perfused vasculature (FITC-conjugated tomato lectin images)", "setting": "allograft recipients fed pirfenidone in their chow, vs control allografted mice receiving no treatment", "result": "the vasculature is protected"}, {"measurement": "appearance of vasculature at days 10 and 12", "setting": "pirfenidone in chow, days 10 and 12 post-transplantation, FITC-lectin images (FIG. 2)", "result": "robust"}, {"measurement": "time vasculature is preserved", "setting": "pirfenidone-treated allografted mice (FIG. 3)", "result": "at least 12 days post-transplantation"}, {"measurement": "tissue oxygenation (pO2)", "result": "maintained tissue oxygenation at approximately the same levels throughout the time period shown"}, {"measurement": "tissue oxygenation (pO2)", "setting": "listed as pirfenidone", "result": "maintaining tissue oxygenation levels at the same levels through at least day 12"}]}]}
